According to ChEMBL document CHEMBL1201861, “Genomics of Drug Sensitity in Cancer screening data, Wellcome Trust Sanger Institute”:

Legend:
Experiment in all cases: cells
LB2241-RCC = format: functional, cell-based, Homo sapiens; conditions: Homo sapiens, LB2241-RCC;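 note: cell viability assay measuring how strongly the cultured human renal carcinoma line is prevented from growing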
Description: SANGER: Inhibition of human LB2241-RCC cell growth in a cell viability assay.

OAW-42 = format: functional, cell-based, Homo sapiens; conditions: Homo sapiens, OAW-42;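 note: growth inhibition of OAW-42 cells, read out with a cell viability assay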
Description: SANGER: Inhibition of human OAW-42 cell growth in a cell viability assay.

G-401 = format: functional, cell-based, Homo sapiens; conditions: Homo sapiens, G-401
Description: SANGER: Inhibition of human G-401 cell growth in a cell viability assay.

EW-24 = format: functional, cell-based; conditions: Homo sapiens;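 note: human EW-24 cancer cell line, growth inhibition read out via a cell viability assay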
Description: SANGER: Inhibition of human EW-24 cell growth in a cell viability assay.

NCI-H1092 = format: functional, cell-based; conditions: Homo sapiens;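 note: cell growth inhibition measured with a cell viability assay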
Description: SANGER: Inhibition of human NCI-H1092 cell growth in a cell viability assay.

NY = format: functional, cell-based, Homo sapiens; conditions: Homo sapiens, NY
Description: SANGER: Inhibition of human NY cell growth in a cell viability assay.

SW1573 = format: functional, cell-based, Homo sapiens; conditions: Homo sapiens, SW1573;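 note: growth inhibition of SW1573 cells, read out with a cell viability assay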
Description: SANGER: Inhibition of human SW1573 cell growth in a cell viability assay.

A4-Fuk = format: functional, cell-based; conditions: Homo sapiens;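 note: growth inhibition of A4-Fuk cells, read out by a cell viability assay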
Description: SANGER: Inhibition of human A4-Fuk cell growth in a cell viability assay.

SJSA-1 = format: functional, cell-based, Homo sapiens; conditions: Homo sapiens, SJSA-1;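 note: growth inhibition of human SJSA-1 cells, read out through a cell viability measurement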
Description: SANGER: Inhibition of human SJSA-1 cell growth in a cell viability assay.

TGW = format: functional, cell-based; conditions: Homo sapiens;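 note: growth inhibition of human TGW cells, read out with a cell viability assay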
Description: SANGER: Inhibition of human TGW cell growth in a cell viability assay.

LB831-BLC = format: functional, cell-based, Homo sapiens; conditions: Homo sapiens, LB831-BLC;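 note: growth inhibition of LB831-BLC cells, read out with a cell viability assay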
Description: SANGER: Inhibition of human LB831-BLC cell growth in a cell viability assay.

JVM-3 = format: functional, cell-based; conditions: Homo sapiens;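 note: growth inhibition of human JVM-3 cells, read out with a cell viability assay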
Description: SANGER: Inhibition of human JVM-3 cell growth in a cell viability assay.

YKG-1 = format: functional, cell-based, Homo sapiens; conditions: Homo sapiens, YKG-1;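 note: cell growth inhibition, read out with a viability assay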
Description: SANGER: Inhibition of human YKG-1 cell growth in a cell viability assay.

MC116 = format: functional, cell-based; conditions: Homo sapiens;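 note: growth inhibition of MC116 cells, read out with a cell viability assay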
Description: SANGER: Inhibition of human MC116 cell growth in a cell viability assay.

A498 = format: functional, cell-based, Homo sapiens; conditions: Homo sapiens, A498;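 note: growth inhibition of human A498 cells, read out with a cell viability assay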
Description: SANGER: Inhibition of human A498 cell growth in a cell viability assay.

COLO-679 = format: functional, cell-based, Homo sapiens; conditions: Homo sapiens, COLO-679
Description: SANGER: Inhibition of human COLO-679 cell growth in a cell viability assay.

SK-NEP-1 = format: functional, cell-based; conditions: Homo sapiens;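 note: growth inhibition of human SK-NEP-1 cells, read out by a cell viability assay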
Description: SANGER: Inhibition of human SK-NEP-1 cell growth in a cell viability assay.

SK-UT-1 = format: functional, cell-based, Homo sapiens; conditions: Homo sapiens, SK-UT-1;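 note: growth inhibition of SK-UT-1 cells, measured by a cell viability assay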
Description: SANGER: Inhibition of human SK-UT-1 cell growth in a cell viability assay.

SNU-449 = format: functional, cell-based, Homo sapiens; conditions: Homo sapiens, SNU-449
Description: SANGER: Inhibition of human SNU-449 cell growth in a cell viability assay.

ML-2 = format: functional, cell-based; conditions: Homo sapiens;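 note: growth inhibition of ML-2 cells, measured with a cell viability readout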
Description: SANGER: Inhibition of human ML-2 cell growth in a cell viability assay.

SW13 = format: functional, cell-based, Homo sapiens; conditions: Homo sapiens, SW13;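 note: IC50 is inhibition of SW13 cell growth, read out with a cell viability assay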
Description: SANGER: Inhibition of human SW13 cell growth in a cell viability assay.

LS-513 = format: functional, cell-based, Homo sapiens; conditions: Homo sapiens, LS-513
Description: SANGER: Inhibition of human LS-513 cell growth in a cell viability assay.

HuCCT-1 = format: functional, cell-based, Homo sapiens, HuCCT1; conditions: Homo sapiens, HuCCT-1;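 note: growth inhibition of HuCCT-1 cells, read out by a cell viability assay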
Description: SANGER: Inhibition of human HuCCT1 cell growth in a cell viability assay.

SHP77 = format: functional, cell-based, Homo sapiens, SHP-77; conditions: Homo sapiens, SHP77;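 note: growth inhibition of human SHP-77 cells measured by a cell viability assay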
Description: SANGER: Inhibition of human SHP-77 cell growth in a cell viability assay.

TCC-SUP = format: functional, cell-based, Homo sapiens; conditions: Homo sapiens, TCC-SUP;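 note: growth inhibition of TCC-SUP cells, read out with a cell viability assay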
Description: SANGER: Inhibition of human TCCSUP cell growth in a cell viability assay.

HC-1 = format: functional, cell-based; conditions: Homo sapiens;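 note: growth inhibition of HC-1 cells measured by a cell viability assay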
Description: SANGER: Inhibition of human HC-1 cell growth in a cell viability assay.

H4 = format: functional, cell-based; conditions: Homo sapiens
Description: SANGER: Inhibition of human H4 cell growth in a cell viability assay.

HTC-C3 = format: functional, cell-based, Homo sapiens; conditions: Homo sapiens, HTC-C3;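 note: inhibition of cell growth, read out with a cell viability assay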
Description: SANGER: Inhibition of human HTC-C3 cell growth in a cell viability assay.

MHH-PREB-1 = format: functional, cell-based; conditions: Homo sapiens;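 note: cell viability assay measuring inhibition of proliferation of human MHH-PREB-1 cells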
Description: SANGER: Inhibition of human MHH-PREB-1 cell growth in a cell viability assay.

MDA-MB-175-VII = format: functional, cell-based, Homo sapiens; conditions: Homo sapiens, MDA-MB-175-VII
DEL = format: functional, cell-based; conditions: Homo sapiens;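 note: growth inhibition of the human DEL cell line, read out with a cell viability assay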
Description: SANGER: Inhibition of human DEL cell growth in a cell viability assay.

MSTO-211H = format: functional, cell-based, Homo sapiens; conditions: Homo sapiens, MSTO-211H
Description: SANGER: Inhibition of human MSTO-211H cell growth in a cell viability assay.

HCE-4 = format: functional, cell-based, Homo sapiens; conditions: Homo sapiens, HCE-4;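 note: cell viability assay measuring inhibition of growth in the human HCE-4 cell line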
Description: SANGER: Inhibition of human HCE-4 cell growth in a cell viability assay.

RPMI-8226 = format: functional, cell-based; conditions: Homo sapiens
Description: SANGER: Inhibition of human RPMI-8226 cell growth in a cell viability assay.

IST-SL1 = format: functional, cell-based, Homo sapiens; conditions: Homo sapiens, IST-SL1;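 note: growth inhibition of human IST-SL1 cells, read out with a cell viability assay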
Description: SANGER: Inhibition of human IST-SL1 cell growth in a cell viability assay.

NCI-H209 = format: functional, cell-based; conditions: Homo sapiens;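 note: growth inhibition of human NCI-H209 cells, measured by a cell viability assay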
Description: SANGER: Inhibition of human NCI-H209 cell growth in a cell viability assay.

GR-ST = format: functional, cell-based; conditions: Homo sapiens
Description: SANGER: Inhibition of human GR-ST cell growth in a cell viability assay.

NCI-H1755 = format: functional, cell-based, Homo sapiens; conditions: Homo sapiens, NCI-H1755;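 note: cell viability readout used to measure growth inhibition of NCI-H1755 cells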
Description: SANGER: Inhibition of human NCI-H1755 cell growth in a cell viability assay.

647-V = format: functional, cell-based, Homo sapiens; conditions: Homo sapiens, 647-V;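 note: growth inhibition of 647-V cells, read out with a cell viability assay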
Description: SANGER: Inhibition of human 647-V cell growth in a cell viability assay.

P30-OHK = format: functional, cell-based; conditions: Homo sapiens;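 note: growth inhibition of the P30-OHK cell line, read out with a cell viability assay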
Description: SANGER: Inhibition of human P30-OHK cell growth in a cell viability assay.

BCPAP = format: functional, cell-based, Homo sapiens; conditions: Homo sapiens, BCPAP;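 note: growth inhibition of BCPAP cells, read out in a cell viability assay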
Description: SANGER: Inhibition of human BCPAP cell growth in a cell viability assay.

A253 cell line = format: functional, cell-based, Homo sapiens; conditions: Homo sapiens, A253;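 note: growth inhibition of A253 cells, read out with a cell viability assay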
Description: SANGER: Inhibition of human A253 cell growth in a cell viability assay.

BB49-HNC = format: functional, cell-based, Homo sapiens; conditions: Homo sapiens, BB49-HNC;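 note: cell viability assay read-out, reported as inhibition of BB49-HNC cell growth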
Description: SANGER: Inhibition of human BB49-HNC cell growth in a cell viability assay.

D-336MG = format: functional, cell-based, Homo sapiens; conditions: Homo sapiens, D-336MG
Description: SANGER: Inhibition of human D-336MG cell growth in a cell viability assay.

Becker = format: functional, cell-based, Homo sapiens; conditions: Homo sapiens, Becker;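 note: growth inhibition of Becker cells, read out with a cell viability assay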
Description: SANGER: Inhibition of human Becker cell growth in a cell viability assay.

ATN-1 = format: functional, cell-based; conditions: Homo sapiens;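 note: growth inhibition of human ATN-1 cells, read out with a cell viability assay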
Description: SANGER: Inhibition of human ATN-1 cell growth in a cell viability assay.

HL-60 = format: functional, cell-based; conditions: Homo sapiens;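 note: growth inhibition of human HL-60 cells, read out with a cell viability assay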
Description: SANGER: Inhibition of human HL-60 cell growth in a cell viability assay.

SCC-15 = format: functional, cell-based, Homo sapiens; conditions: Homo sapiens, SCC-15;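 note: growth inhibition of SCC-15 cells, read out with a cell viability assay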
Description: SANGER: Inhibition of human SCC-15 cell growth in a cell viability assay.

LB373-MEL-D = format: functional, cell-based, Homo sapiens; conditions: Homo sapiens, LB373-MEL-D;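 note: growth inhibition of the cell line, read out in a cell viability assay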
Description: SANGER: Inhibition of human LB373-MEL-D cell growth in a cell viability assay.

CAL-62 = format: functional, cell-based, Homo sapiens; conditions: Homo sapiens, CAL-62;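 note: growth inhibition of CAL-62 cells, read out with a cell viability assay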
Description: SANGER: Inhibition of human CAL-62 cell growth in a cell viability assay.

EW-3 = format: functional, cell-based; conditions: Homo sapiens;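 note: cell viability assay read-out, IC50 reflects inhibition of growth of the EW-3 cells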
Description: SANGER: Inhibition of human EW-3 cell growth in a cell viability assay.

SF-539 = format: functional, cell-based, Homo sapiens; conditions: Homo sapiens, SF-539;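 note: Read-out is a cell viability assay, with IC50 reflecting inhibition of cell growth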
Description: SANGER: Inhibition of human SF539 cell growth in a cell viability assay.

NCI-H1651 = format: functional, cell-based, Homo sapiens; conditions: Homo sapiens, NCI-H1651;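 note: Read-out is a cell viability assay, with IC50 expressing inhibition of NCI-H1651 cell growth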
Description: SANGER: Inhibition of human NCI-H1651 cell growth in a cell viability assay.

COc1cc([C@@H]2c3cc4c(cc3[C@@H](O[C@@H]3O[C@@H]5CO[C@@H](C)O[C@H]5[C@H](O)[C@H]3O)[C@H]3COC(=O)[C@H]23)OCO4)cc(OC)c1O [ETOPOSIDE]
IC50 (LB2241-RCC): > 16 µM
IC50 (OAW-42): 6.06 µM
IC50 (G-401): 1.44 µM
IC50 (EW-24): > 16 µM
IC50 (NCI-H1092): > 16 µM
IC50 (NY): 4.49 µM
IC50 (SW1573): 2.25 µM
IC50 (A4-Fuk): 0.841 µM
IC50 (SJSA-1): 2.98 µM
IC50 (TGW): > 16 µM
IC50 (LB831-BLC): 6.15 µM
IC50 (JVM-3): > 16 µM
IC50 (YKG-1): 1.23 µM
IC50 (MC116): > 16 µM
IC50 (A498): > 16 µM
IC50 (COLO-679): 0.163 µM
IC50 (SK-NEP-1): 1.9 µM
IC50 (SK-UT-1): 0.0424 µM
IC50 (SNU-449): > 16 µM
IC50 (ML-2): 0.178 µM
IC50 (SW13): 1.8 µM
IC50 (LS-513): > 16 µM
IC50 (HuCCT-1): 1.91 µM
IC50 (SHP77): > 16 µM
IC50 (TCC-SUP): 11.6 µM
IC50 (HC-1): 0.54 µM
IC50 (H4): 0.297 µM
IC50 (HTC-C3): > 16 µM
IC50 (MHH-PREB-1): > 16 µM
IC50 (MDA-MB-175-VII): > 16 µM
IC50 (DEL): 0.311 µM
IC50 (MSTO-211H): > 16 µM
IC50 (HCE-4): 0.801 µM
IC50 (RPMI-8226): 14.3 µM
IC50 (IST-SL1): > 16 µM
IC50 (NCI-H209): 1.21 µM
IC50 (GR-ST): 6.69 µM
IC50 (NCI-H1755): > 16 µM
IC50 (647-V): 0.487 µM
IC50 (P30-OHK): 1.21 µM
IC50 (BCPAP): 0.737 µM
IC50 (A253 cell line): 0.0184 µM
IC50 (BB49-HNC): > 16 µM
IC50 (D-336MG): > 16 µM
IC50 (Becker): 11.8 µM
IC50 (ATN-1): 0.204 µM
IC50 (HL-60): 2.29 µM
IC50 (SCC-15): 13.1 µM
IC50 (LB373-MEL-D): > 16 µM
IC50 (CAL-62): 0.851 µM
IC50 (EW-3): 14.3 µM
IC50 (SF-539): 1.61 µM
IC50 (NCI-H1651): > 16 µM

Cc1cnc(-c2cnc(NCCNc3ccc(C#N)cn3)nc2-c2ccc(Cl)cc2Cl)[nH]1 [LADUVIGLUSIB]
IC50 (LB2241-RCC): > 2.56 µM
IC50 (OAW-42): > 2.56 µM
IC50 (G-401): > 2.56 µM
IC50 (EW-24): > 2.56 µM
IC50 (NCI-H1092): > 2.56 µM
IC50 (NY): > 2.56 µM
IC50 (SW1573): > 2.56 µM
IC50 (A4-Fuk): > 2.56 µM
IC50 (SJSA-1): > 2.56 µM
IC50 (TGW): > 2.56 µM
IC50 (LB831-BLC): > 2.56 µM
IC50 (JVM-3): > 2.56 µM
IC50 (YKG-1): > 2.56 µM
IC50 (MC116): > 2.56 µM
IC50 (A498): 1.3 µM
IC50 (COLO-679): > 2.56 µM
IC50 (SK-NEP-1): > 2.56 µM
IC50 (SK-UT-1): > 2.56 µM
IC50 (SNU-449): > 2.56 µM
IC50 (ML-2): > 2.56 µM
IC50 (SW13): > 2.56 µM
IC50 (LS-513): > 2.56 µM
IC50 (HuCCT-1): > 2.56 µM
IC50 (SHP77): > 2.56 µM
IC50 (TCC-SUP): > 2.56 µM
IC50 (HC-1): > 2.56 µM
IC50 (H4): > 2.56 µM
IC50 (HTC-C3): > 2.56 µM
IC50 (MHH-PREB-1): > 2.56 µM
IC50 (MDA-MB-175-VII): > 2.56 µM
IC50 (DEL): > 2.56 µM
IC50 (MSTO-211H): > 2.56 µM
IC50 (HCE-4): > 2.56 µM
IC50 (RPMI-8226): > 2.56 µM
IC50 (IST-SL1): > 2.56 µM
IC50 (NCI-H209): > 2.56 µM
IC50 (GR-ST): > 2.56 µM
IC50 (NCI-H1755): > 2.56 µM
IC50 (647-V): > 2.56 µM
IC50 (P30-OHK): > 2.56 µM
IC50 (BCPAP): 1.67 µM
IC50 (A253 cell line): > 2.56 µM
IC50 (BB49-HNC): > 2.56 µM
IC50 (D-336MG): 0.846 µM
IC50 (Becker): > 2.56 µM
IC50 (ATN-1): > 2.56 µM
IC50 (HL-60): > 2.56 µM
IC50 (SCC-15): > 2.56 µM
IC50 (LB373-MEL-D): > 2.56 µM
IC50 (CAL-62): > 2.56 µM
IC50 (EW-3): > 2.56 µM
IC50 (SF-539): > 2.56 µM
IC50 (NCI-H1651): > 2.56 µM
